Assay results reported in patent publication US9346818B2 (priority 2012, dated 2016).
Entries after “also recorded” stand apart in the source; their conditions may differ. Read-outs that look alike come from different tables or passages of the source.

Tests used:
acetylcholinesterase = acetylcholinesterase (Homo sapiens (Human), UniProt P22303); test: biochemical; assay type: biochemical; details: for potency on acetylcholinesterase compared with positive control drug donepezil hydrochloride: in vitro, enzymology level
[1] = test system: learning and memory disorder of mice induced by scopolamine; test: Morris water maze test, senile dementia mice model induced by scopolamine; assay type: in vivo; details: Table 6, scopolamine 1 mg/kg
[2] = modified Ellman method, read-out: IC50 (nM), inhibition activity on acetylcholinesterase
[3] = read-out: IC50 (nM), inhibition activity on acetylcholinesterase
[4] = IC50 (nM), inhibition activity on acetylcholinesterase, modified Ellman method

acetylcholinesterase, sequence (P22303 32-614, species assumed): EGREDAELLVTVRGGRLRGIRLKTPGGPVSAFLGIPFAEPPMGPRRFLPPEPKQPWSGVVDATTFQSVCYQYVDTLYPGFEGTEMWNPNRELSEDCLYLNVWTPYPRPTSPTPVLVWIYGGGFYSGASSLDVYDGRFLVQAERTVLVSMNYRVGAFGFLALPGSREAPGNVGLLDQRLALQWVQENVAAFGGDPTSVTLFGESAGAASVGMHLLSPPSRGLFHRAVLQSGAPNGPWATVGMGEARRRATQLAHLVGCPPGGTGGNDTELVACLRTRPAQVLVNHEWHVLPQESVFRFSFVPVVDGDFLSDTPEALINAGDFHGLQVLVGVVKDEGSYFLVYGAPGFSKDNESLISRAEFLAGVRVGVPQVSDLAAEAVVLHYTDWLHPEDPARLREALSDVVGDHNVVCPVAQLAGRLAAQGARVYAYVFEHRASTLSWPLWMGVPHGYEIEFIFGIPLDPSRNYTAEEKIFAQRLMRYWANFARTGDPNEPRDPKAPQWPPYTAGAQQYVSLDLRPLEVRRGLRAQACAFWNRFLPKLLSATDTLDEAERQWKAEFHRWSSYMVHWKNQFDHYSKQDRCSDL

Row | Compound | potency on acetylcholinesterase compared with positive control drug donepezil hydrochloride (acetylcholinesterase) | IC50 (acetylcholinesterase; [2]) [nM] | also measured
1 | COc1ccccc1CN1CCC(CCN2C(=O)c3cc4c(cc3C23CC3)OCO4)CC1 [Compound I-26, 6-[2-[1-[(2-methoxyphenyl)methyl]-4-piperidyl]ethyl]spiro[[1, 3]dioxolo[4,5-f]isoindole-7,1′-cyclopropane]-5-one] | relative low activity | > 2000 | –
2 | O=C1c2cc3c(cc2C2(CC2)N1CCC1CCN(Cc2cccnn2)CC1)OCO3 [Compound I-38, 6-[2-[1-(pyridazin-3-ylmethyl)-4-piperidyl]ethyl]spiro[[1,3]dioxolo[4,5-f]isoindole-7,1′-cyclopropane]-5-one] | relative low activity | – | IC50 (acetylcholinesterase; [3]): > 2000 nM
3 | O=C1c2cc3c(cc2C(=O)N1CCC1CCN(Cc2ccccn2)CC1)OCO3 [Compound I-36, 6-[2-[1-(2-pyridylmethyl)-4-piperidyl]ethyl]-[1,3]dioxolo[4,5-f]isoindole-5,7-dione] | slightly lower potency than the positive control drug | 161 | –
4 | O=C1c2cc3c(cc2C(=O)N1CCC1CCN(Cc2ccccc2F)CC1)OCO3 [Compound I-2, 6-[2-[1-[(2-fluorophenyl)methyl]-4-piperidyl]ethyl]-[1,3]dioxolo[4,5-f]isoindole-5,7-dione] | slightly higher potency than the positive control drug; also recorded: comparable inhibition activity on acetylcholinesterase with donepezil hydrochloride | – | IC50 (acetylcholinesterase; [3]): 80 nM
5 | O=C1c2cc3c(cc2C2(CC2)N1CCC1CCN(Cc2cccnc2)CC1)OCO3 [Compound I-30, 6-[2-[1-(3-pyridylmethyl)-4-piperidyl]ethyl]spiro[[1,3]dioxolo[4,5-f]isoindole-7,1′-cyclopropane]-5-one] | relative low activity | > 2000 | –
6 | O=C1c2cc3c(cc2C2(CC2)N1CCC1CCN(Cc2ccccc2C(F)(F)F)CC1)OCO3 [Compound I-22, 6-[2-[1-[[2-(trifluoromethyl)phenyl]methyl]-4-piperidyl]ethyl]spiro[[1,3]dioxolo[4,5-f]isoindole-7,1′-cyclopropane]-5-one] | relative low activity | > 2000 | –
7 | O=C1c2cc3c(cc2C2(CC2)N1CCC1CCN(Cc2ccc(F)cc2)CC1)OCO3 [Compound I-20, 6-[2-[1-[(4-fluorophenyl)methyl]-4-piperidyl]ethyl]spiro[[1,3]dioxolo[4,5-f]isoindole-7,1′-cyclopropane]-5-one] | even lower | 706 | –
8 | COc1ccc(CN2CCC(CCN3C(=O)c4cc5c(cc4C34CC4)OCO5)CC2)cc1 [Compound I-28, 6-[2-[1-[(4-methoxyphenyl)methyl]-4-piperidyl]ethyl]spiro[[1, 3]dioxolo[4,5-f]isoindole-7,1′-cyclopropane]-5-one] | relative low activity | – | IC50 (acetylcholinesterase; [3]): > 2000 nM
9 | CC1c2cc3c(cc2C(=O)N1CCC1CCN(Cc2ccc(F)cc2)CC1)OCO3 (stereo not shown) [Compound I-12, 6-[2-[1-[(4-fluorophenyl)methyl]-4-piperidyl]ethyl]-5-methyl-5H-[1,3]dioxolo[4,5-f]isoindol-7-one] | relative low activity | > 2000 | –
10 | CC1(C)c2cc3c(cc2C(=O)N1CCC1CCN(Cc2ccc(F)cc2)CC1)OCO3 [Compound I-16, 6-[2-[1-[(4-fluorophenyl)methyl]-4-piperidyl]ethyl]-7,7-dimethyl-[1,3]dioxolo[4,5-f]isoindol-5-one] | relative low activity | > 2000 | –
11 | Cc1ccc(CN2CCC(CCN3C(=O)c4cc5c(cc4C34CC4)OCO5)CC2)[nH]1 [Compound I-40, 6-[2-[1-[(5-methyl-1H-pyrrol-2-yl)methyl]-4-piperidyl]ethyl]spiro[[1,3]dioxolo[4,5-f]isoindole-7,1′-cyclopropane]-5-one] | relative low activity | – | IC50 (acetylcholinesterase; [3]): > 2000 nM
12 | CC1c2cc3c(cc2C(=O)N1CCC1CCN(Cc2ccccc2F)CC1)OCO3 (stereo not shown) [Compound I-10, 6-[2-[1-[(2-fluorophenyl)methyl]-4-piperidyl]ethyl]-5-methyl-5H-[1,3]dioxolo[4,5-f]isoindol-7-one] | slightly lower potency than the positive control drug | 239 | –
13 | O=C1c2cc3c(cc2CN1CCC1CCN(Cc2ccccc2F)CC1)OCO3 [Compound I-6, 6-[2-[1-[(2-fluorophenyl)methyl]-4-piperidyl]ethyl]-5H-[1,3]dioxolo[4,5-f]isoindol-7-one] | even lower | 483 | –
14 | O=C1c2cc3c(cc2C2(CC2)N1CCC1CCN(Cc2ccccc2Cl)CC1)OCO3 [Compound I-21, 6-[2-[1-[(2-chlorophenyl)methyl]-4-piperidyl]ethyl]spiro[[1,3]dioxolo[4,5-f]isoindole-7,1′-cyclopropane]-5-one] | even lower | 653 | –
15 | O=C1c2cc3c(cc2C2(CC2)N1CCC1CCN(Cc2ncccn2)CC1)OCO3 [Compound I-32, 6-[2-[1-(pyrimidin-2-ylmethyl)-4-piperidyl]ethyl]spiro[[1,3]dioxolo[4,5-f]isoindole-7,1′-cyclopropane]-5-one] | relative low activity | > 2000 | –
16 | O=C1c2cc3c(cc2CN1CCC1CCN(Cc2ccccc2)CC1)OCO3 [Compound I-5, 6-[2-(1-benzyl-4-piperidyl)ethyl]-5H-[1,3]dioxolo[4,5-f]isoindol-7-one] | even lower | – | IC50 (acetylcholinesterase; [4]): 502 nM
17 | O=C1c2cc3c(cc2CN1CCC1CCN(Cc2ccc(F)cc2)CC1)OCO3 [Compound I-8, 6-[2-[1-[(4-fluorophenyl)methyl]-4-piperidyl]ethyl]-5H-[1,3]dioxolo[4,5-f]isoindol-7-one] | even lower | 658 | –
18 | O=C1c2cc3c(cc2C2(CC2)N1CCC1CCN(Cc2c(F)cccc2F)CC1)OCO3 [Compound I-25, 6-[2-[1-[(2,6-difluorophenyl)methyl]-4-piperidyl]ethyl]spiro[[1,3]dioxolo[4,5-f]isoindole-7,1′-cyclopropane]-5-one] | slightly lower potency than the positive control drug | – | IC50 (acetylcholinesterase; [3]): 249 nM
19 | O=C1c2cc3c(cc2C2(CC2)N1CCC1CCN(Cc2ccn[nH]2)CC1)OCO3 [Compound I-41, 6-[2-[1-(1H-pyrazol-5-ylmethyl)-4-piperidyl]ethyl]spiro[[1,3]dioxolo[4,5-f]isoindole-7,1′-cyclopropane]-5-one] | even lower | – | IC50 (acetylcholinesterase; [3]): 990 nM
20 | CC1(C)c2cc3c(cc2C(=O)N1CCC1CCN(Cc2ccccc2)CC1)OCO3 [Compound I-13, 6-[2-(1-benzyl-4-piperidyl)ethyl]-7,7-dimethyl-[1,3]dioxolo[4,5-f]isoindol-5-one] | relative low activity | – | IC50 (acetylcholinesterase; [4]): > 2000 nM
21 | O=C1c2cc3c(cc2C(=O)N1CCC1CCN(Cc2cccnn2)CC1)OCO3 [Compound I-37, 6-[2-[1-(pyridazin-3-ylmethyl)-4-piperidyl]ethyl]-[1,3]dioxolo[4,5-f]isoindole-5,7-dione] | even lower | 905 | –
22 | CC1c2cc3c(cc2C(=O)N1CCC1CCN(Cc2ccccc2)CC1)OCO3 (stereo not shown) [Compound I-9, 6-[2-(1-benzyl-4-piperidyl)ethyl]-5-methyl-5H-[1,3]dioxolo[4,5-f]isoindol-7-one] | – | – | latent period day 1 ([1]; 5 mg/kg intragastric): 58.9 ± 4.0 s; latent period day 2 ([1]; 5 mg/kg intragastric): 60 ± 0 s; latent period day 3 ([1]; 5 mg/kg intragastric): 51.2 ± 11.0 s; latent period day 4 ([1]; 5 mg/kg intragastric): 53.4 ± 11.8 s; latent period day 5 ([1]; 5 mg/kg intragastric): 51.1 ± 11.5 s; times of crossing platform ([1]; 5 mg/kg intragastric): 1.27 ± 1.44; latent period day 1 ([1]; 10 mg/kg intragastric): 58.3 ± 6.5 s; latent period day 2 ([1]; 10 mg/kg intragastric): 56.6 ± 9.1 s; latent period day 3 ([1]; 10 mg/kg intragastric): 56.5 ± 6.3 s; latent period day 4 ([1]; 10 mg/kg intragastric): 51.1 ± 11.6 s; latent period day 5 ([1]; 10 mg/kg intragastric): 49.2 ± 16.9 s; times of crossing platform ([1]; 10 mg/kg intragastric): 1.80 ± 1.74
23 | N#Cc1ccccc1CN1CCC(CCN2C(=O)c3cc4c(cc3C23CC3)OCO4)CC1 [Compound I-24, 6-[2-[1-[(2-cyanophenyl)methyl]-4-piperidyl]ethyl]spiro[[1,3]dioxolo[4,5-f]isoindole-7,1′-cyclopropane]-5-one] | relative low activity | > 2000 | –
24 | O=C1c2cc3c(cc2CN1CCC1CCN(Cc2cccc(F)c2)CC1)OCO3 [Compound I-7, 6-[2-[1-[(3-fluorophenyl)methyl]-4-piperidyl]ethyl]-5H-[1,3]dioxolo[4,5-f]isoindol-7-one] | even lower | 486 | –
